Entries after “also recorded” stand apart in the source; their conditions may differ.

The values that follow come from patent US20110039763A1, “TARGETED ANTIMICROBIAL MOIETIES” (C3 JIAN, INC., priority 2009, published 2011).

In assay [1] the test system is microorganisms. Briefly: Targeting peptide binding to target microorganisms (Tables 3, 10, 12). Conditions: peptide binding in aqueous buffers that varied with peptide solubility; preferably 1x PBS. From the text:
In certain embodiments, the targeting moiety comprises one or more targeting peptides that bind particular bacteria, fungi, and/or yeasts, and/or algae, and/or viruses and/or that bind particular groups of bacteria, and/or groups of fungi, and/or groups of yeasts, and/or groups of algae.
In certain embodiments the targeting peptides include peptides comprising or consisting of one or more of the amino acid sequences shown in Table 3 (SEQ ID NOs:13-1566). In various embodiments the peptides include peptides comprising or consisting of the retro, inverso, retro-inverso, and/or beta form of one or more of the amino acid sequences shown in Table 3. Also contemplated are circular permutations of these sequences as well as peptides comprising or consisting of the retro, inverso, retro-inverso, and/or beta form of such circular permutations.
In certain embodiments the targeting peptide can comprise one or more domains capable of binding, specifically binding, or preferentially binding to a microorganism, e.g., a target microbial organism (see, e.g., Table 3). In certain embodiment, the targeting peptide be identified via screening peptide libraries. For example, a phage display peptide library can be screened against a target microbial organism or a desired antigen or epitope thereof. Any peptide identified through such screening can be used as a targeting peptide for the target microbial organism.

Assay [2] has as its system microorganisms. Briefly: Morphology, biofilm and growth disrupting peptides (Table 5). It is filed as cell-based. The arrangement: key: A: Peptide aggregates; B: Less hyphal formation; Clumps; Diffuse clumps and small polyps; F: Diffuse growth; H: Thin; I: Growth inhibition; Microcolony formation; Rippled; Small polyps; Thick; W: Halo formation on top, microlonies on bottom. From the text:
In certain embodiments peptides that induce alterations in phenotype or other biological activities can also be used as antimicrobial effector moieties.

With “1T-3 (VLGIAGGLDAYGELVGGN; Peptide with targeting and/or antimicrobial activity)”, in the assay on microorganisms [1], the “Target(s) (microorganism bound by the targeting peptide)” value is recorded as “S. mutans; also recorded: S. gordonii”.

Take “1T-4 (LDAYGELVGGN; Peptide with targeting and/or antimicrobial activity)”: the “Target(s) (microorganism bound by the targeting peptide)” value in the assay with microorganisms [1] is “S. gordonii; also recorded: S. sanguinis; also recorded: S. oralis; also recorded: V. atypica; also recorded: L. casei; also recorded: S. mutans”.

For the substance “1T-6 (KFINGVLSQFVLERK; Peptide with targeting and/or antimicrobial activity)”, in the assay with microorganisms [1], the “Target(s) (microorganism bound by the targeting peptide)” value is “S. mutans”.

For the substance “1T-7 (SQRIIEPVKSPQPYPGFSVS; Peptide with targeting and/or antimicrobial activity)”, the “Target(s) (microorganism bound by the targeting peptide)” value in the assay with microorganisms [1] is “M. xanthus”.

With “1T-8 (FSVAACGEQRAVTFVLLIEDLI; Peptide with targeting and/or antimicrobial activity)”, in the assay on microorganisms [1], the “Target(s) (microorganism bound by the targeting peptide)” value is “M. xanthus”.

Consider “1T-9 (WAWAESPRCVSTRSNIHALAFRVEVAALT; Peptide with targeting and/or antimicrobial activity)”, for which the “Target(s) (microorganism bound by the targeting peptide)” value in the assay with microorganisms [1] is on record as “M. xanthus”.

Consider “1T-10 (SPAGLPGDGDEA; Peptide with targeting and/or antimicrobial activity)”, for which, in the assay on microorganisms [1], the “Target(s) (microorganism bound by the targeting peptide)” value is on record as “M. xanthus”.

“1T-11 (RISE; Peptide with targeting and/or antimicrobial activity)”: in the assay with microorganisms [1], the “Target(s) (microorganism bound by the targeting peptide)” value is reported as “S. mutans; also recorded: S. epidermidis; also recorded: P. aeruginosa”.

Consider “1T-12 (FGNIFKGLKDVIETIVKWTAAK; Peptide with targeting and/or antimicrobial activity)”, for which, in the assay with microorganisms [1], the “Target(s) (microorganism bound by the targeting peptide)” value is on record as “C. xerosis; also recorded: C. striatum; also recorded: S. epidermidis; also recorded: S. mutans”.

Consider “1T-13 (FRSPCINNNSLQPPGVYPAR; Peptide with targeting and/or antimicrobial activity)”, for which the “Target(s) (microorganism bound by the targeting peptide)” value in the assay with microorganisms [1] is “S. aureus; also recorded: S. epidermidis; also recorded: P. aeruginosa”.

“1T-14 (ALAGLAGLISGK; Peptide with targeting and/or antimicrobial activity)”: the “Target(s) (microorganism bound by the targeting peptide)” value in the assay on microorganisms [1] is recorded as “S. mutans; also recorded: S. aureus; also recorded: S. epidermidis; also recorded: C. xerosis”.

For the substance “1T-15 (DVILRVEAQ; Peptide with targeting and/or antimicrobial activity)”, in the assay on microorganisms [1], the “Target(s) (microorganism bound by the targeting peptide)” value was “S. mutans”.

“1T-16 (IDMR; Peptide with targeting and/or antimicrobial activity)”: in the assay with microorganisms [1], the “Target(s) (microorganism bound by the targeting peptide)” value is given as “P. aeruginosa”.

Consider “1T-17 (NNAIVYIS; Peptide with targeting and/or antimicrobial activity)”, for which the “Target(s) (microorganism bound by the targeting peptide)” value with microorganisms [1] is on record as “S. mutans”.

Regarding “1T-18 (YSKTLHFAD; Peptide with targeting and/or antimicrobial activity)”, in the assay with microorganisms [1], the “Target(s) (microorganism bound by the targeting peptide)” value was “S. aureus; also recorded: S. epidermidis; also recorded: C. striatum; also recorded: P. aeruginosa”.

On to “1T-19 (PGAFRNPQMPRG; Peptide with targeting and/or antimicrobial activity)”, for which, in the assay on microorganisms [1], the “Target(s) (microorganism bound by the targeting peptide)” value is recorded as “S. aureus; also recorded: S. epidermidis; also recorded: P. aeruginosa”.

For the substance “1T-20 (PALVDLSNKEAVWAVLDDHS; Peptide with targeting and/or antimicrobial activity)”, the “Target(s) (microorganism bound by the targeting peptide)” value in the assay on microorganisms [1] is “S. mutans; also recorded: P. aeruginosa”.

Regarding “1T-21 (YVEEAVRAALKKEARISTEDTPVNLPSFDC; Peptide with targeting and/or antimicrobial activity)”, the “Target(s) (microorganism bound by the targeting peptide)” value with microorganisms [1] is on record as “S. mutans; also recorded: P. aeruginosa”.

With “1T-22 (VPLDDGTRRPEVARNRDKDRED; Peptide with targeting and/or antimicrobial activity)”, the “Target(s) (microorganism bound by the targeting peptide)” value in the assay on microorganisms [1] is “S. epidermidis; also recorded: P. aeruginosa”.

Regarding “1T-23 (PALVDLSNKEAVWAVLDDHS; Peptide with targeting and/or antimicrobial activity)”, the “Target(s) (microorganism bound by the targeting peptide)” value with microorganisms [1] was “S. mutans; also recorded: P. aeruginosa”.

Turning to “1T-24 (EEAEEKLAEVSQAVKRLVR; Peptide with targeting and/or antimicrobial activity)”, the “Target(s) (microorganism bound by the targeting peptide)” value in the assay with microorganisms [1] is recorded as “P. aeruginosa”.

“1T-25 (VGLDVSVLVLFFGLQLLSVLLGAMIR; Peptide with targeting and/or antimicrobial activity)”: the “Target(s) (microorganism bound by the targeting peptide)” value in the assay on microorganisms [1] is recorded as “S. aureus; also recorded: S. epidermidis; also recorded: C. xerosis; also recorded: C. striatum; also recorded: P. aeruginosa”.

In the case of “PF-565 (RAEAEAQRQAEADAKRKAEEAARL; Peptide with targeting and/or antimicrobial activity)”, the “Organism, effect” value is reported as “B. subtilis (D)” in the assay on microorganisms [2] (B. subtilis) and “MRSA (C)” with microorganisms [2] (MRSA).

With “PF-571 (SDLLYYPNENREDSPAGVVKEVKE; Peptide with targeting and/or antimicrobial activity)”, in the assay on microorganisms [2] (B. subtilis), the “Organism, effect” value is on record as “B. subtilis (D)”.

In the case of “PF-574 (LVKSGKLESPYEHSEHLTLSQEKGLE; Peptide with targeting and/or antimicrobial activity)”, the “Organism, effect” value with microorganisms [2] (B. subtilis) is recorded as “B. subtilis (D)”.

In the case of “PF-582 (NLKTIEKECPFCNNKMDIKLKD; Peptide with targeting and/or antimicrobial activity)”, in the assay with microorganisms [2] (E. faecalis), the “Organism, effect” value is given as “E. faecalis (A)”.

Consider “PF-618 (KLNTLNKKDNPSLNDQDKNAVLNLLALAK; Peptide with targeting and/or antimicrobial activity)”, for which the results for the “Organism, effect” value in the assay with microorganisms [2] (E. faecalis) and in the assay on microorganisms [2] (S. pneumoniae) were “E. faecalis (H)” and “S. pneumoniae (I)”, respectively.

As for “PF-624 (VFLLDSYCFVKINL; Peptide with targeting and/or antimicrobial activity)”, the “Organism, effect” value in the assay with microorganisms [2] (E. coli) is on record as “E. coli (C)”; in the assay on microorganisms [2] (M. luteus) it was “M. luteus (C)”; in the assay on microorganisms [2] (MRSA), “MRSA (C)”; with microorganisms [2] (P. mirabilis), “P. mirabilis (C)”; in the assay with microorganisms [2] (S. epidermidis), “S. epidermidis (D)”; with microorganisms [2] (S. mutans), “S. mutans (D)”. In the assay with microorganisms [2] (S. pneumoniae), the “Organism, effect” value is given as “S. pneumoniae (D)”.

As to “PF-670 (chain 1 TVIVAPMHSGV; chain 2 TVIVAPMHSGV; Peptide with targeting and/or antimicrobial activity)”, the “Organism, effect” value in the assay on microorganisms [2] (B. subtilis) is “B. subtilis (H)”; in the assay with microorganisms [2] (S. pneumoniae), “S. pneumoniae (H)”.

With “PF-C089 (MPKRHYYKLEAKALQFGLPFAYSPIQLLK; Peptide with targeting and/or antimicrobial activity)”, the “Organism, effect” value in the assay with microorganisms [2] (P. gingivalis) was “P. gingivalis (R)”.

With “PF-C214 (GGHKQLVIEPLVSQ; Peptide with targeting and/or antimicrobial activity)”, the “Organism, effect” value in the assay on microorganisms [2] (F. nucleatum) is recorded as “F. nucleatum (T)”.

On to “PF-C293 (IIIILPKIYLVCKTV; Peptide with targeting and/or antimicrobial activity)”, for which the entries for the “Organism, effect” value in the assay with microorganisms [2] (F. nucleatum), in the assay on microorganisms [2] (P. gingivalis) and in the assay on microorganisms [2] (S. mutans) were “F. nucleatum (T)”, “P. gingivalis (R)” and “S. mutans (F)”, respectively.
